Paper PMC9871744 (Cellular and Molecular Gastroenterology and Hepatology, 2022)
Where “and” joins values, the source holds several entries; their conditions need not be identical. Identical values can stand only once.

Legend:
HepG2 cells = assay: Micronucleus analysis
[1] = target: T1, human estrogen receptor alpha (hERα) (Homo sapiens, UniProt P03372); assay: Estrogen receptor transcriptional activation and inhibition assays; assay type: cell-based
T1 sequence (P03372 1-595): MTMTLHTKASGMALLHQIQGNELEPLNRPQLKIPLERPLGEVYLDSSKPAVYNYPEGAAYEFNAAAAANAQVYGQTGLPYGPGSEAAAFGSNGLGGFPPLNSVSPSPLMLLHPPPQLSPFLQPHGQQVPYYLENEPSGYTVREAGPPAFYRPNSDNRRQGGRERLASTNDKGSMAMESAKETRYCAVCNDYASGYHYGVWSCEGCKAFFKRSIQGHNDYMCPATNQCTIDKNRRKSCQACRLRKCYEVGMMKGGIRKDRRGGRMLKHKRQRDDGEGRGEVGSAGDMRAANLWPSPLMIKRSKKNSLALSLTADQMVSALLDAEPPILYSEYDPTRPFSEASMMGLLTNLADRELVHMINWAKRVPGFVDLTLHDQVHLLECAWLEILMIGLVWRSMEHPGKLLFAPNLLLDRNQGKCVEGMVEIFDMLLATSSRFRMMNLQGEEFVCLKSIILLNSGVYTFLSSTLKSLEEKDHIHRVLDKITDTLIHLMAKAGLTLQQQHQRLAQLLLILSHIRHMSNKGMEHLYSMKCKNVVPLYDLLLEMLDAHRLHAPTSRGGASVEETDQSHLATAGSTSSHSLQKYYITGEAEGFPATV

C57BL/6J male mice = assay: Diet-induced obesity; assay type: in vivo
female Wistar rats = assay: Toxicity / median lethal dose test, OECD guidelines 425; assay type: in vivo
C57Bl/6 male mice = assay: Two-bottle preference and licking tests; assay type: in vivo; settings: 50 μmol/L in 0.3% xanthan gum, 12 hours
human fungiform TBC = assay: Ca2+ signaling in human fungiform TBC; assay type: cell-based
mouse fungiform TBC = assay: Ca2+ signaling in mouse fungiform TBC; assay type: cell-based; settings: LA at 20 μmol/L
Hela-9903 cells = assay: Cytotoxicity in the estrogen receptor reporter cells; assay type: cell-based
[2] = test system: chorda tympani (CT) nerve; assay: Chorda tympani; assay type: in vivo; settings: lingual application in mice; 1, 2, and 4 mmol/L; normalized to NH4Cl 100 mmol/L
[3] = Pharmacokinetics and detection in blood by LC-MS; assay type: in vivo, mice
[4] = extended treatment in the absence of S9 mix, 0.0065 mmol/L
[5] = extended treatment in the absence of S9 mix, 0.010 mmol/L
[6] = extended treatment in the absence of S9 mix, 0.020 mmol/L
[7] = extended treatment in the absence of S9 mix, 2.5 mmol/L (Table 14)
[8] = extended treatment in the absence of S9 mix, 5 mmol/L (Table 14)
[9] = extended treatment in the absence of S9 mix, 10 mmol/L (Table 14)
[10] = short treatment in the absence of S9 mix, 0.025 mmol/L
[11] = short treatment in the absence of S9 mix, 0.05 mmol/L
[12] = short treatment in the absence of S9 mix, 0.10 mmol/L
[13] = short treatment in the presence of S9 mix, 0.025 mmol/L
[14] = short treatment in the presence of S9 mix, 0.05 mmol/L
[15] = short treatment in the presence of S9 mix, 0.10 mmol/L
[16] = rats, single oral 2000 mg/kg, means ± SEM (n = 5)
[17] = bicompartmental model (Monolix), mice i.v.

Structure (SMILES): CCCCC/C=C\C/C=C\CCCCCCCCP(=O)(OCC)OCC [NKS-3, diethyl (9Z,12Z)-octadeca-9,12-dien-1-ylphosphonate]
- MNBN cells frequency (%) (HepG2 cells; [4]): 0.8% and 0.6%
- Mean frequency (%) of MNBN cells (HepG2 cells; [4]): 0.70%
- MNBN cells frequency (%) (HepG2 cells; [5]): 0.9% and 0.8%
- Mean frequency (%) of MNBN cells (HepG2 cells; [5]): 0.85%
- MNBN cells frequency (%) (HepG2 cells; [6]): 0.9% and 0.6%
- Mean frequency (%) of MNBN cells (HepG2 cells; [6]): 0.75%
- MNBN cells frequency (%) (HepG2 cells; [7]): 0.9% and 0.7%
- Mean frequency (%) of MNBN cells (HepG2 cells; [7]): 0.80%
- MNBN cells frequency (%) (HepG2 cells; [8]): 0.9% and 0.8%
- Mean frequency (%) of MNBN cells (HepG2 cells; [8]): 0.85%
- MNBN cells frequency (%) (HepG2 cells; [9]): 1.0% and 0.9%
- Mean frequency (%) of MNBN cells (HepG2 cells; [9]): 0.95%
- MNBN cells frequency (%) (HepG2 cells; [10]): 0.6% and 0.5%
- Mean frequency (%) of MNBN cells (HepG2 cells; [10]): 0.55%
- MNBN cells frequency (%) (HepG2 cells; [11]): 0.7%
- Mean frequency (%) of MNBN cells (HepG2 cells; [11]): 0.70%
- MNBN cells frequency (%) (HepG2 cells; [12]): 0.7% and 0.6%
- Mean frequency (%) of MNBN cells (HepG2 cells; [12]): 0.65%
- MNBN cells frequency (%) (HepG2 cells; [13]): 0.7%
- Mean frequency (%) of MNBN cells (HepG2 cells; [13]): 0.70%
- MNBN cells frequency (%) (HepG2 cells; [14]): 0.6% and 0.8%
- Mean frequency (%) of MNBN cells (HepG2 cells; [14]): 0.70%
- MNBN cells frequency (%) (HepG2 cells; [15]): 0.6% and 0.4%
- Mean frequency (%) of MNBN cells (HepG2 cells; [15]): 0.50%
- estrogenic or antiestrogenic potential (conclusion) [1]: did not exert an estrogenic or antiestrogenic potential
- CD36 (reduced) and GPR120 (high) protein expression in TBC, Western blots (C57BL/6J male mice; HFD animals, FTA intake 16 weeks): reversed this trend
- locomotor activity (C57BL/6J male mice; HFD mice): increased
- LA-induced decreases in [Ca2+]i in TBC from obese mice (C57BL/6J male mice; HFD mice given FTA 16 weeks): reversed
- daily energy expenditure (indirect calorimetry) (C57BL/6J male mice; HFD-fed mice): significantly increased
- leptin mRNA expression in adipose tissues (C57BL/6J male mice; HFD-fed mice): failed to significantly decrease
- fecal microbiota: bacterial family increased (C57BL/6J male mice; HFD-fed mice, 16S rRNA sequencing, week 26): Marinifilaceae
- adipose tissue mRNA encoding leptin, CD36, TNF-α, and IL6 (C57BL/6J male mice; HFD-fed mice, epididymal adipose tissue): down-regulated
- crown-like structures of adipocytes (C57BL/6J male mice; obese animals, histology): decreased
- release of GLP-1, CCK-1, and PYY into blood circulation (C57BL/6J male mice; obese mice, end of week 26): induced the release
- weight of kidneys (female Wistar rats; [16]): 1.82 ± 0.193 g
- weight of liver (female Wistar rats; [16]): 8.12 ± 0.188 g
- weight of spleen (female Wistar rats; [16]): 0.96 ± 0.12 g
- toxic effect on liver enzymes and blood lipid parameters (female Wistar rats; rats, single oral limit dose 2000 mg/kg body weight, 2 weeks): No toxic effect
- evidence of toxicity, preliminary study (female Wistar rats; single animal, oral dosages of 5000 mg/kg body weight): no evidence of toxicity
- preference in 2-bottle paradigm versus control solution (C57Bl/6 male mice): significant preference
- Ca2+ signaling compared with a dietary long-chain fatty acid (human fungiform TBC): higher
- increase in intracellular free Ca2+ concentrations, [Ca2+]i (human fungiform TBC; NKS-3 50 μmol/L, NKS-5 25 μmol/L): induced a rapid increase
- Ca2+ signaling compared with a dietary long-chain fatty acid (mouse fungiform TBC): higher
- cytotoxic concentrations (Hela-9903 cells; Hela-9903 cells): ≥ 10 µmol/L
- highest non-cytotoxic concentration (Hela-9903 cells; estrogen receptor assays): 5 µmol/L
- CT nerve responses compared with dietary LCFAs (LA, OA) [2]: higher
- Intercompartmental clearance, population pharmacokinetic estimation mean [3, 17]: 0.739 L/h
- Proportional residual error, population pharmacokinetic model [3, 17]: 1.89%
- Volume of central compartment, population pharmacokinetic estimation mean [3, 17]: 0.0634 L
- Volume of peripheral compartment, population pharmacokinetic estimation mean [3, 17]: 2.24 L
- detection in blood circulation after intravenous injections (LC-MS) ([3]; mice): could be detected
- AUClast as share of the total exposure ([3]; mice, intravenous 10 mg/kg): about 80%
- AUClast ([3]; mice, intravenous 10 mg/kg body weight, NCA (AUC0–6 h), 10 mg/kg): 59.94 ± 12.09 mg/kg/Lxh
- Tmax ([3]; mouse, plasma, iv, 10 mg/kg): 5 min
- Vd ([3]; mouse, plasma, iv, 10 mg/kg): 1.23 ± 0.279 L/kg
- clearance ([3]; mouse, plasma, iv, 10 mg/kg): 2.82 mL/min/kg and 3.37 mL/min
- half-life ([3]; mouse, plasma, iv, 10 mg/kg): 4 h
